According to patent US11638719B2, “Product for obesity treatment” (YEDITEPE UNIVERSITESI, priority 2017, dated 2023):

Legend:
Format in all cases: cell-based
[1] = test system: human adipose stem cells (hASCs); experiment: Cytotoxicity analysis, cell viability by MTS assay; conditions: NaB 20 μg/ml; for cell viability: MTS
Experimental: Cytotoxicity of Pluronic® F68 and NaB were dissolved and tested at 7 different concentrations in DMEM ([…], 0.7%, 0.5%, 0.3%, 0.1%, 0.05%, 0.01% (w/v) for F68 and 5, 10, 20, 50, 100, 200 and 300 ug/ml for NaB).
HASCs were seeded into 96-well culture plates (Corning Plasticware, Corning, N.Y., cat. no. CLS3360) at 5,000 cells/well. The next day, the cells were treated with F68 and NaB solutions that were prepared at different concentrations. In accordance with the manufacturer's instructions, cell viability was measured by the MTS assay (Promega, Southampton, UK CellTiter 96 AqueousOne solution). After 24, 48 and 72 hours of incubation, 10 ul of MTS reagent and 100 ul of DMEM medium were applied to the cells and then, after incubation at 37° C. for 2 hours, their absorbances at […] were measured with the ELISA plate reader (BioTek Instruments, Inc., Vt., USA).

[2] = test system: PPARγ, FABP4 and adiponectin gene expression in human adipose stem cells; experiment: RT-PCR analysis of adipogenesis-promoting gene expression after adipocyte differentiation; conditions: F68 0.05%, NaB 20 μg/ml, alone or combined; 10 days adipogenic differentiation; compared to positive control; normalized to GAPDH
Experimental: (§1) The cells were seeded into 6-well culture plates at 100,000 cells/well in an adipogenic differentiation medium. Content of the medium was as follows. 10% (v/v) FBS, 1 uM dexamethasone, 100 uM indomethacin (Sigma, USA), 500 uM IBMX (Calbiochem Merck Millipore, Germany) and 0.01 mg/mL insulin (Gibco, UK). 5 different groups were prepared; only F68, only NaB, F68 and NaB combination, PC and NC. Adipogenic differentiation was applied for 10 days by changing the medium every other day. While only DMEM, 10% (v/v) FBS and 1% (v/v) PSA were applied to the negative control group, the positive control group was cultured with adipogenic differentiation medium.
Following differentiation, RNA isolation was carried out using High Pure RNA Isolation Kit (Roche, Germany) in accordance with the manufacturer's instructions. After performance of cDNA synthesis (High Fidelity cDNA synthesis kit, Roche, Germany) from isolated RNA samples, RT-PCR was performed in three replicates using iCycler RT-PCR detection system (Bio-Rad, Hercules, Calif.). Synthesis levels were normalized to GAPDH.
For each sample the fold changes in the expression levels were determined using the method 2 (-Delta Delta C (t)).

[3] = test system: PPARγ, FABP4 and adiponectin protein expression in human adipose stem cells; experiment: Immunocytochemical analysis of PPARγ, FABP4 and adiponectin proteins after adipocyte differentiation; conditions: F68 0.05%, NaB 20 μg/ml, alone or combined at the same ratios; compared to positive control
Experimental: as §1
Human adipose stem cells were seeded into 48-well plates at 8,000 cells/well. Following the differentiation experiment, the cells were fixed in 2% (w/v) paraformaldehyde at 4° C. for 30 minutes and then blocked with 2% (v/v) goat serum (Sigma, USA) for 20 minutes. The cells incubated at 4° C. overnight with PPAR-γ (ab8934, Abcam, UK, 1: 100), FABP4 (SC-30088, Santa Cruz Biotechnology, Tex., USA, 1:100) and adiponectin (ab22554, Abcam, UK, 1:50) primary antibodies were then incubated with secondary antibodies (goat anti-rabbit IgG Alexa Fluor 488, goat anti-mouse IgGAlexaFluor 488, 1:1000) at 4° C. for 2 hours. […] Immunocytochemical analysis results were observed under fluorescence microscope (NiconEclipse TE200). […]

[4] = test system: human adipose stem cells (hASCs); experiment: 'Oil Red O' staining of fat accumulation after adipocyte differentiation; conditions: F68 0.05%, NaB 20 μg/ml, alone or combined; 10 days adipogenic differentiation; compared to positive control
Experimental: as §1
The ‘Oil Red O’ solution was prepared by dissolving 0.5 grams of ‘Oil Red O’ (Sigma, USA) in 100 ml of isopropanol. After being fixed with 2% paraformaldehyde (weight/volume) for 30 minutes, the cells were incubated in ‘Oil Red O’ solution (diluted in PBS at 6:4) for 1 hour. The cells were observed under light microscope.
Statistical analysis of the results was performed with the unpaired t-test and the graphs were drawn using GraphPad Prism 5 software Statistical significance was accepted as p<0.05. In addition, a graphical representation of the results obtained from immunocytochemistry and ‘Oil red O’ staining was obtained using the Adobe Creative Suite 6 program

## sodium pentaborate pentahydrate [NaB]
[1]; end of day 1, hASCs
  cell viability: 101%
[1]; end of day 2, hASCs
  cell viability: 106%
[1]; end of day 3, hASCs
  cell viability: 109%
[1]; hASCs
  cytotoxicity of the dosage used: non-cytotoxic
[2]
  expression levels of PPARγ, FABP4 and adiponectin genes: increased significantly
[3]
  PPARγ, FABP4 and adiponectin protein expression levels: higher than that of positive control
[4]
  amount of fat accumulation in the cells: increased the amount of fat accumulation
